18 compounds from PubChem BioAssay AID330 (DTP/NCI, 2004) can be followed below.

The assay has as its system P388 leukemia ip, CD2F1 mice, survival T/C. Briefly: NCI In Vivo Anticancer Drug Screen. Data for tumor model P388 Leukemia (intraperitoneal) in CD2F1 (CDF1) mice. To be noted: endpoint: median survival time, higher = longer survival. In outline:
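Mice carrying the transplanted tumor received test compound or vehicle. Survival was recorded in each group, and the value is the treated-group measurement divided by that of the vehicle-treated control group.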

[1] abbreviates: dose: 50.0 mg/kg/injection, schedule: Q01DX009 (ip), vehicle: saline.
Setting [2] is: dose: 25.0 mg/kg/injection, schedule: Q01DX009 (ip), vehicle: saline with Tween-80.
[3] abbreviates: dose: 100.0 mg/kg/injection, schedule: Q01DX009 (ip), vehicle: saline with Tween-80.
Where [4] appears, read: dose: 200.0 mg/kg/injection, schedule: Q01DX009 (ip), vehicle: saline with Tween-80.

Values joined by “and” are separate entries in the source; they are usually repeats but may differ in a detail not shown here. Equal values may be shown once. Inconclusive results and toxic doses are left out.

Regarding `Cn1c(=O)c2nc(-c3ccc(Cl)c(Cl)c3)oc2n(C)c1=O`, the T/C is, setting by setting: under setting [1], 109 % of control; (dose: 100.0 mg/kg/injection, schedule: Q01DX009 (ip), vehicle: saline) 111 % of control; (dose: 200.0 mg/kg/injection, schedule: Q01DX009 (ip), vehicle: saline) 100 % of control.

Regarding `N#CCCN(C(=S)Nc1ccc(F)cc1)N1CCCCCC1`, the T/C is, setting by setting: (dose: 100.0 mg/kg/injection, schedule: Q04DX003 (ip), vehicle: saline) 100 % of control; (dose: 200.0 mg/kg/injection, schedule: Q04DX003 (ip), vehicle: saline) 107 % of control; (dose: 400.0 mg/kg/injection, schedule: Q04DX003 (ip), vehicle: saline) 98 % of control.

On to `CCCCCCN=C(N)N/N=C(\C)c1ccc2c(c1)Cc1ccccc1-2`, for which the T/C was 107 % of control (dose: 12.5 mg/kg/injection, schedule: Q04DX002 (ip), vehicle: saline with Tween-80); 100 % of control (dose: 25.0 mg/kg/injection, schedule: Q04DX002 (ip), vehicle: saline with Tween-80); 92 % of control (dose: 50.0 mg/kg/injection, schedule: Q04DX002 (ip), vehicle: saline with Tween-80); 116 % of control (dose: 100.0 mg/kg/injection, schedule: Q04DX002 (ip), vehicle: saline with Tween-80).

For `CCCCCCC1(/C=C/c2ccc(Cl)cc2Cl)OCC(C)(C)CO1`, the T/C is, setting by setting: (dose: 50.0 mg/kg/injection, schedule: Q01DX009 (ip), vehicle: saline + alcohol) 102 % of control; (dose: 100.0 mg/kg/injection, schedule: Q01DX009 (ip), vehicle: saline + alcohol) 102 % of control; (dose: 200.0 mg/kg/injection, schedule: Q01DX009 (ip), vehicle: saline + alcohol) 102 % of control.

On to `C=CCn1nnc(N)n1`, for which the T/C is 111 % of control (dose: 100.0 mg/kg/injection, schedule: Q04DX003 (ip), vehicle: Klucel (hydroxypropylcellulose) (HPC)); 109 % of control (dose: 200.0 mg/kg/injection, schedule: Q04DX003 (ip), vehicle: Klucel (hydroxypropylcellulose) (HPC)); 105 % of control (dose: 400.0 mg/kg/injection, schedule: Q04DX003 (ip), vehicle: Klucel (hydroxypropylcellulose) (HPC)).

As for `O=NN(CCCl)C(=O)NC1C2CC3CC(C2)CC1C3` (stereo unspecified), the T/C reads like this: (dose: 1.78 mg/kg/injection, schedule: Q01DX009 (ip), vehicle: other) 118 % of control; (dose: 2.2 mg/kg/injection, schedule: Q04DX003 (ip), vehicle: other) 104 % of control; (dose: 2.66 mg/kg/injection, schedule: Q01DX009 (ip), vehicle: other) 116 % of control; (dose: 3.3 mg/kg/injection, schedule: Q04DX003 (ip), vehicle: other) 118 % of control; (dose: 4.0 mg/kg/injection, schedule: Q01DX009 (ip), vehicle: other) 169 % of control; (dose: 6.0 mg/kg/injection, schedule: Q01DX009 (ip), vehicle: other) 225 % of control. Moreover, the T/C by setting is: (dose: 7.5 mg/kg/injection, schedule: Q04DX003 (ip), vehicle: other) 177 % of control; (dose: 12.5 mg/kg/injection, schedule: Q04DX003 (ip), vehicle: other) 180 % of control; (dose: 25.0 mg/kg/injection, schedule: Q04DX003 (ip), vehicle: other) 300 % of control; (dose: 50.0 mg/kg/injection, schedule: Q04DX003 (ip), vehicle: other) 300 % of control; (dose: 100.0 mg/kg/injection, schedule: Q04DX003 (ip), vehicle: other) 105 % of control.

As to `CC(C)=C(C)OS(=O)(=O)C(F)(F)F`, the T/C is 102 % of control (dose: 50.0 mg/kg/injection, schedule: Q01DX009 (ip), vehicle: olive oil, sesame oil, peanut oil); 114 % of control (dose: 100.0 mg/kg/injection, schedule: Q01DX009 (ip), vehicle: olive oil, sesame oil, peanut oil); 96 % of control (dose: 200.0 mg/kg/injection, schedule: Q01DX009 (ip), vehicle: olive oil, sesame oil, peanut oil).

As to `NC(=S)N/N=C1/C(=O)N(c2ccc(Cl)cc2)C(=O)C1C(=O)Nc1ccc(Cl)cc1` (stereo unspecified), the T/C by setting is: (dose: 15.0 mg/kg/injection, schedule: Q01DX005 (ip), vehicle: saline with Tween-80) 97 % of control; (dose: 30.0 mg/kg/injection, schedule: Q01DX005 (ip), vehicle: saline with Tween-80) 94 % of control; (dose: 60.0 mg/kg/injection, schedule: Q01DX005 (ip), vehicle: saline with Tween-80) 93 % of control and 94 % of control.

As for `Cc1ccnc(N=C2N=C(Nc3cc(C)ccn3)c3ccccc32)c1`, the T/C is, setting by setting: (dose: 6.25 mg/kg/injection, schedule: Q01DX009 (ip), vehicle: saline with Tween-80) 93 % of control; (dose: 12.5 mg/kg/injection, schedule: Q01DX009 (ip), vehicle: saline with Tween-80) 88 % of control; under setting [2], 99 % of control; under setting [3], 91 % of control; under setting [4], 90 % of control.

As to `CCOC(=O)c1ccc(N=Nc2c(O)c(C(=O)OCC)c(O)c3ccccc23)cc1O`, the T/C is 91 % of control (dose: 100.0 mg/kg/injection, schedule: Q01DX001 (ip), vehicle: distilled water + alcohol); 86 % of control (dose: 200.0 mg/kg/injection, schedule: Q01DX001 (ip), vehicle: distilled water + alcohol); 86 % of control (dose: 400.0 mg/kg/injection, schedule: Q01DX001 (ip), vehicle: distilled water + alcohol).

In the case of `CCOC(=O)CC(C)=N`, the T/C runs as follows: under setting [2], 112 % of control; (dose: 50.0 mg/kg/injection, schedule: Q01DX009 (ip), vehicle: saline with Tween-80) 99 % of control and 110 % of control and 114 % of control; under setting [3], 106 % of control and 107 % of control and 113 % of control; under setting [4], 103 % of control and 109 % of control and 123 % of control; (dose: 400.0 mg/kg/injection, schedule: Q01DX009 (ip), vehicle: saline with Tween-80) 103 % of control and 105 % of control.

As for `CC(C)C1SCCS1`, the T/C was 102 % of control (dose: 50.0 mg/kg/injection, schedule: Q01DX001 (ip), vehicle: saline with Tween-80); 106 % of control (dose: 100.0 mg/kg/injection, schedule: Q01DX001 (ip), vehicle: saline with Tween-80); 99 % of control (dose: 200.0 mg/kg/injection, schedule: Q01DX001 (ip), vehicle: saline with Tween-80).

Take `CC1=C(Cl)C(=O)c2c(O)cccc2C1=O`: the T/C by setting is: (dose: 1.0 mg/kg/injection, schedule: Q01DX005 (ip), vehicle: Klucel + Tween-80) 91 % of control; (dose: 2.0 mg/kg/injection, schedule: Q01DX005 (ip), vehicle: Klucel + Tween-80) 94 % of control; (dose: 4.0 mg/kg/injection, schedule: Q01DX005 (ip), vehicle: Klucel + Tween-80) 97 % of control.

For `CCOC(=O)Nc1nc2ccc([N+](=O)[O-])cc2s1`, the T/C by setting is: (dose: 6.25 mg/kg/injection, schedule: Q01DX009 (ip), vehicle: Klucel (hydroxypropylcellulose) (HPC)) 104 % of control; (dose: 12.5 mg/kg/injection, schedule: Q01DX009 (ip), vehicle: Klucel (hydroxypropylcellulose) (HPC)) 107 % of control; (dose: 25.0 mg/kg/injection, schedule: Q01DX009 (ip), vehicle: Klucel (hydroxypropylcellulose) (HPC)) 105 % of control.

With `O=C1c2ccccc2C(=O)N1CC[P+](c1ccc(Cl)cc1)(c1ccc(Cl)cc1)c1ccc(Cl)cc1`, the T/C (dose: 25.0 mg/kg/injection, schedule: Q01DX009 (ip), vehicle: other) was 95 % of control.

As for `CCCCCC(CN(C)C)C(O)/C=C/c1ccc(Cl)cc1Cl` (stereo unspecified), the T/C is 108 % of control (dose: 12.5 mg/kg/injection, schedule: Q01DX009 (ip), vehicle: saline); 100 % of control (dose: 25.0 mg/kg/injection, schedule: Q01DX009 (ip), vehicle: saline); 99 % of control under setting [1].

Consider `CC(=O)C(O)N1C(=O)C=CC1=O` (stereo unspecified), for which the T/C is 86 % of control (dose: 2.5 mg/kg/injection, schedule: Q01DX009 (ip), vehicle: saline with Tween-80); 100 % of control (dose: 2.5 mg/kg/injection, schedule: Q04DX003 (ip), vehicle: saline); 95 % of control (dose: 5.0 mg/kg/injection, schedule: Q04DX003 (ip), vehicle: saline); 100 % of control (dose: 10.0 mg/kg/injection, schedule: Q04DX003 (ip), vehicle: saline).

Consider `COc1ccccc1N=c1scc(C)n1C`, for which the T/C (dose: 50.0 mg/kg/injection, schedule: Q01DX009 (ip), vehicle: Klucel (hydroxypropylcellulose) (HPC)) is 111 % of control; the T/C (dose: 100.0 mg/kg/injection, schedule: Q01DX009 (ip), vehicle: Klucel (hydroxypropylcellulose) (HPC)) is 109 % of control; the T/C (dose: 200.0 mg/kg/injection, schedule: Q01DX009 (ip), vehicle: Klucel (hydroxypropylcellulose) (HPC)) was 118 % of control.
